Laboratory results as given in patent US4866058A, “Method for control of hyperlipidemia” (priority 1988, dated 1989).
Where two headings read alike, the source gives them in different places.

Assays:
[1] = test system: serum cholesterol and serum triglyceride levels; test: Testing of normal mice: hypolipidemic activity in CF1 mice; format: in vivo, CF1 male mice; conditions: for response vs control in vivo at 20 mg/kg/day: Mus musculus
Experimental: The following compounds were tested for their hypolpidemic activity in CF1 mice.
Compounds A-V as defined above, were suspended in an aqueous 1 percent carboxymethylcellulose (CMC) solution and homogenized. Each of the so prepared compounds were administered to a group of six CF1 male mice, each weighing approximately 25 grams, intraperitioneally for 16 days. Each of these compounds were provided in a dosage of 20 mg/kg/d ip. On Days 9 and 16 blood was obtained by tail vein bleeding. The blood serum so obtained was separated by centrifugation for three minutes. Serum cholesterol levels were determined by a modification of the Liebermann-Burchard reaction (Ness, Clin. Chim. Acta., Vol. 10, 229 [1964]). Serum triglyceride levels were determined on Day 16 by use of the Fisher, Hycel Triglyceride Test Kit.
In addition to the above-described treated mice, an untreated control group of six mice were similarly tested on Days 9 and 16 to determine their serum cholesterol and trigylceride blood levels. Based on the results obtained for the untreated control group, the percent control, based on serum cholesterol and serum triglyceride levels of the treated mice compared to the untreated mice, was obtained. Table 1 reports this percent control, including standard deviation, indicating the level of confidence of these numbers.

in vivo = conditions: mouse, ip
[2] = test system: serum cholesterol and serum triglyceride levels; test: Testing of hyperlipidemic mice (atherogenic diet); format: in vivo, CF1 male mice; conditions: hyperlipidemic CF1 mice, 20 mg/kg/d intraperitoneally, Day 12
Experimental: A group of six CF^1 male mice (about 25 g) were placed on a commercial diet (U.S. Biochemical Corporation Basal Atherogenic Test Diet) which produced a "hyperlipidemic" state. That is, the average serum cholesterol level in the group of treated mice was raised from 122 to 375 mg percent and triglyceride levels were raised from 137 to 367 mg/dL.

serum lipoprotein = test: Cholesterol content of serum lipoprotein of treated Sprague-Dawley rats; format: in vivo; conditions: orally 14 days at 20 mg/kg/day
Text: (§1) A test solution of Compounds A, F, J, M, N and O were suspended in an aqueous solution of 1% CMC, homogenized and administered orally to six Sprague-Dawley male rats, which each weighted approximately 350 grams. Administration of the compounds was by an intubation needle. The rats were each fed with 20 milligrams of Compounds A, F, J, M, N and O per kilogram of body weight per day for 14 days. Similarly, six Sprague-Dawley male rats of approximately the same weight (that used for testing F weighed approximately 160 grams) were fed similar volumes of the same aqueous 1% CMC solution without the active agents, also orally, administered by intubation needle. In addition, as a control, a similar group of six male Sprague-Dawley rats were untreated.
The cholesterol content of serum lipoprotein
of Sprague-Dawley Rats treated
orally for 14 days at 20 mg/kg/day

[3] = test system: Serum cholesterol and triglyceride levels; test: Serum testing of normal rats; format: in vivo, Sprague-Dawley male rats; conditions: 20 mg/kg per day orally
Text: as §1
On Days 7 and 14, blood was obtained from each of the rats of the three groups by tail vein bleeding. The blood obtained was separated by centrifugation for three minutes. Serum cholesterol and triglyceride levels were determined in accordance with the procedure of Example 6.

[4] = LD50 value in mice as single injection IP; conditions: mouse, in vivo
plasma lipids = conditions: rats; cited from earlier work
[5] = normal CF1 mice, 20 mg/kg/d ip, Day 16
[6] = 216 h, normal CF1 mice, 20 mg/kg/d ip, Day 9, read-out: Serum Cholesterol, Day 9
[7] = 384 h, normal CF1 mice, 20 mg/kg/d ip, Day 16, read-out: Serum Cholesterol, Day 16
[8] = 384 h, normal CF1 mice, 20 mg/kg/d ip, Day 16, read-out: Serum Triglyceride, Day 16
[9] = ip, 216 h, read-out: Serum Cholesterol, Day 9
[10] = ip, 384 h, read-out: Serum Cholesterol, Day 16
[11] = ip, 384 h, read-out: Serum Triglyceride, Day 16

Molecule | response vs control in vivo at 20 mg/kg/day [1, 6] | response vs control in vivo at 20 mg/kg/day [1, 7] | response vs control in vivo at 20 mg/kg/day [1, 8] | further results
4-(4- -n-butyl)-1,2 dipentylcarbonyl-1,2,4-triazolidine-3,5-dione |  |  |  | Serum Cholesterol, Day 9 ([1]; normal CF1 mice, 20 mg/kg/d ip, Day 9): 69 percent control; Serum Cholesterol, Day 16 [1, 5]: 49 percent control; Serum Triglyceride, Day 16 [1, 5]: 53 percent control
CC(=O)n1[nH]c(=O)n(-c2ccccc2)c1=O [A, 4-phenyl-1-methylcarbonyl-1,2,4-triazolidine-3,5-dione] | 67 ± 5% | 61 ± 6% | 48 ± 6% | LD50 (in vivo): > 500 mg/kg; Serum Cholesterol [2]: 41% of Control; Serum Triglyceride [2]: 40% of Control
CC(=O)n1c(=O)n(-c2ccccc2)c(=O)n1C(C)=O [B, 4-phenyl-1,2-dimethylcarbonyl-1,2,4-triazolidine-3,5-dione] | 70 ± 6% | 64 ± 5% | 61 ± 5% | 
CCOC(=O)n1[nH]c(=O)n(-c2ccccc2)c1=O [C, 4-phenyl-1-ethoxycarbonyl-1,2,4-triazolidine-3,5-dione] | 73 ± 7% | 69 ± 5% | 62 ± 6% | 
CC(=O)n1[nH]c(=O)n(-c2ccc(Cl)cc2)c1=O [Compound D, 4-(4-chlorophenyl)-1-methylcarbonyl-1,2,4-triazolidine-3,5-dione] | 73 ± 4% | 64 ± 6% | 55 ± 7% | 
CCOC(=O)c1nc(=O)n(-c2ccccc2)c(=O)[nH]1 [Compound N, 3-phenyl-6-ethoxycarbonyl-1,3,5-triazine-2,4(1 --H,3 --H)-dione] | 63 ± 6% | 54 ± 5% | 51 ± 2% | VLDL cholesterol (serum lipoprotein): 50% of Control; Serum Cholesterol [2]: 50% of Control; Serum Triglyceride [2]: 46% of Control
CCC(=O)n1c(=O)n(-c2ccc([N+](=O)[O-])cc2)c(=O)n1C(=O)CC [Compound S, 4-(4-nitrophenyl)-1,2 diethylcarbonyl-1,2,4-triazolidine-3,5-dione] | 72% | 36% | 62% | 
O=c1[nH][nH]c(=O)n1-c1ccccc1 [E, 4-phenyl-1,2,4-triazolidine-3,5-dione] | 71 ± 5% | 48 ± 3% | 68 ± 6% | 
COc1ccc(-n2c(=O)[nH][nH]c2=O)cc1 [F, 4-(4-methoxyphenyl)-1,2,4-triazolidine-3,5-dione] | 75 ± 5% | 56 ± 4% | 58 ± 3% | 
CCCCn1c(=O)[nH][nH]c1=O [G, 4-(4-n-butyl)-1,2,4-triazolidine-3,5-dione] | 71 ± 6% | 69 ± 5% | 79 ± 8% | 
O=c1[nH][nH]c(=O)n1-c1ccc([N+](=O)[O-])cc1 [H, 4-(4-nitrophenyl)-1,2,4-triazolidine-3,5-dione] | 73 ± 5% | 66 ± 5% | 47 ± 5% | 
O=c1[nH][nH]c(=O)n1-c1ccc(Cl)cc1 [J, 4-(4-chlorophenyl)-1,2,4-triazolidine-3,5-dione] | 90 ± 5% | 58 ± 4% | 43 ± 4% | LD50 (in vivo): > 500 mg/kg; Serum Cholesterol [2]: 46% of Control; Serum Triglyceride [2]: 49% of Control
Cn1c(=O)[nH][nH]c1=O [K, 4-methyl-1,2,4-triazolidine-3,5-dione] | 88 ± 6% | 67 ± 5% | 89 ± 5% | 
CCOC(=O)C1n2c(=O)n(-c3ccc(Cl)cc3)c(=O)n21 [L, 3-(4-chlorophenyl)-6-ethoxyacarbonyl-1,3,5-triazabicyclo[3.1.0]hexane-2,4-dione] |  |  |  | response vs control in vivo at 20 mg/kg/day [1, 9]: 74 ± 3%; response vs control in vivo at 20 mg/kg/day [1, 10]: 56 ± 5%; response vs control in vivo at 20 mg/kg/day [1, 11]: 66 ± 7%
CCOC(=O)C1n2c(=O)n(-c3ccccc3)c(=O)n21 [M, 3-phenyl-6-ethoxycarbonyl-1,3,5-triazabicyclo[3.1.0]hexane-2,4-dione] |  |  |  | response vs control in vivo at 20 mg/kg/day [1, 9]: 62 ± 6%; response vs control in vivo at 20 mg/kg/day [1, 10]: 57 ± 5%; response vs control in vivo at 20 mg/kg/day [1, 11]: 59 ± 6%; Serum Cholestrol, Day 7 ([3]; Day 7): 70% of Control; Serum Triglyceride, Day 7 ([3]; Day 7): 36% of Control; Serum Cholestrol, Day 14 ([3]; Day 14): 36% of Control; Serum Triglyceride, Day 14 ([3]; Day 14): 54% of Control; HDL cholesterol (serum lipoprotein): 340% of Control; LDL cholesterol (serum lipoprotein): 67% of Control; VLDL cholesterol (serum lipoprotein): 71% of Control; LD50 [4]: > 500 mg/kg; Serum Cholesterol [2]: 46% of Control; Serum Triglyceride [2]: 54% of Control
CCOC(=O)c1nc(=O)n(-c2ccc(Cl)cc2)c(=O)[nH]1 [O, 3-(4-chlorophenyl)-6-ethoxycarbonyl-1,3,5-triazine-2,4(1 --H,3 --H)-dione] | 63 ± 4% | 57 ± 4% | 55 ± 6% | 
O=C(O)c1cc(=O)[nH]c(=O)[nH]1 [Orotic acid] |  |  |  | plasma lipids blood level (plasma lipids): decrease the plasma lipids blood level in rats
COc1ccc(-n2c(=O)n(C(C)=O)n(C(C)=O)c2=O)cc1 [P, 4(4-methoxyphenyl)-1,2-dimethylcarbonyl-1,2,4-triazolidine-3,5-dione] | 76% | 57% | 49% | 
O=c1[nH][nH]c(=O)[nH]1 [Parent, 1,2,4-triazolidine-3,5-dione] | 81% | 79% | 73% | 
COc1ccc(-n2c(=O)n(C(=O)c3ccccc3)n(C(=O)c3ccccc3)c2=O)cc1 [Q, 4.(4-methoxyphenyl)-1,2-diphenylcarbonyl-1,2,4-triazolidine-3,5-dione] | 67% | 86% | 75% | 
CCC(=O)n1c(=O)n(-c2ccc(OC)cc2)c(=O)n1C(=O)CC [R, 4.(4-methoxyphenyl)-1,2 diethylcarbonyl-1,2,4-triazolidine-3,5-dione] | 62% | 63% | 62% | 
CC(=O)n1c(=O)n(-c2ccc(Cl)cc2)c(=O)n1C(C)=O [U, 4-(4-chlorophenyl)-1,2-dimethylcarbonyl-1,2,4-triazolidine-3,5-dione] | 72% | 51% | 51% | 
CCCCCC(=O)n1[nH]c(=O)n(-c2ccc(Cl)cc2)c1=O [V, 4-(4-chlorophenyl)1-pentylcarbonyl (2 --H)-1,2,4-triazolidine-3,5 dione] | 77% | 52% | 42% | 
